PMC8770593 (Nature Communications, 2022)
Residue numbers refer to the chain shown, from its start. Several values for one entry are separate records, joined by “and”; a condition that tells them apart may be missing. Equal entries are not always repeated. Where two headings read alike, the source gives them in different places.

Key:
[1] = system: stabilized α1BAR mutant with L334 and L334F back-mutant; conditions: saturation binding, whole E. coli cells, L334 vs L334F back-mutant
[2] = molecular target: T1, α1BAR E194^ECL2→V (Homo sapiens, UniProt P35368, E194V); experiment: Agonist-induced IP1 accumulation (Gq signaling, HTRF IP-One) in transfected HEK293T/17 cells; format: cell-based
T1 construct: harboring the wild-type helix 8 and the full-length C-terminus as well as the entire ICL3; expressed in transfected cells; host or cells: HEK293T/17
T1 sequence (P35368 whole entry E194V): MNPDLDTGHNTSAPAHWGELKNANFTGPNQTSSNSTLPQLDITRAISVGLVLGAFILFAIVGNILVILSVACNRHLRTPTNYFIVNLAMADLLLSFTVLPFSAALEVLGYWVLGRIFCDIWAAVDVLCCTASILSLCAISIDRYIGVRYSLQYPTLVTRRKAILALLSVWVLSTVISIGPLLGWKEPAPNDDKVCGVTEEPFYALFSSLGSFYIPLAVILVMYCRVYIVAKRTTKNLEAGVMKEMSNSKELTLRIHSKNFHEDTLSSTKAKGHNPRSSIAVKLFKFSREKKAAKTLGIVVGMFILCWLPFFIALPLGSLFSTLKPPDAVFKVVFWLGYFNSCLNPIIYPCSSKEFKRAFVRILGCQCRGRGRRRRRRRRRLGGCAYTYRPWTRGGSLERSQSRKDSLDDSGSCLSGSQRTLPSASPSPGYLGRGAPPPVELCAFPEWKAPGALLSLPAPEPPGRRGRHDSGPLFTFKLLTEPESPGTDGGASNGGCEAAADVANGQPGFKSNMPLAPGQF
Description: (§1) Signaling assays were performed with receptor constructs harboring the wild-type helix 8 and the full-length C-terminus as well as the entire ICL3. Agonist-induced IP1 accumulation was measured in transiently transfected HEK293T/17 cells, as described before. […] IP1 accumulation was measured using the HTRF IP-One kit (Cisbio) according to the manufacturer’s protocol on a SPARK fluorescence plate reader (Tecan).

[3] = molecular target: T2, α1BAR S95^2.54→C (Homo sapiens, UniProt P35368, S95C); experiment: as above; format: cell-based; conditions: for IP1 concentration: S95C, listed as PE
T2 construct: harboring the wild-type helix 8 and the full-length C-terminus as well as the entire ICL3; expressed in transfected cells; host or cells: HEK293T/17
T2 sequence (P35368 1-520 S95C): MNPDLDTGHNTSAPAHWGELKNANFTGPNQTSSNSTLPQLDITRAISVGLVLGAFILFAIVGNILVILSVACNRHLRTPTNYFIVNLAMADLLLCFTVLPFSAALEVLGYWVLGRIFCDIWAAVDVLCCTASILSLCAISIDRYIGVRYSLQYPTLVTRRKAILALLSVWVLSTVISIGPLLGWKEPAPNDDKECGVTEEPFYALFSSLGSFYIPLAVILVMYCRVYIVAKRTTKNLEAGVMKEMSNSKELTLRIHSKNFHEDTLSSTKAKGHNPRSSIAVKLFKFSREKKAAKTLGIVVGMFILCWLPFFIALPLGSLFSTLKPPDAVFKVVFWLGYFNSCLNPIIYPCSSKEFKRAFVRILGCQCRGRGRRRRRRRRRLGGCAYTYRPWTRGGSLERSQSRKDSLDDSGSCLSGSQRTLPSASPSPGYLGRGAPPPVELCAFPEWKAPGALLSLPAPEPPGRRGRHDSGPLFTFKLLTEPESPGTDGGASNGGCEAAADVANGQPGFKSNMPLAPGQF
Description: as §1

[4] = molecular target: T3, α1BAR D191^ECL2→Y (Homo sapiens, UniProt P35368, D191Y); experiment: as above; format: cell-based; conditions: for IP1 concentration: D191Y, listed as PE
T3 construct: harboring the wild-type helix 8 and the full-length C-terminus as well as the entire ICL3; expressed in transfected cells; host or cells: HEK293T/17
T3 sequence (P35368 1-520 D191Y): T2 sequence (P35368 1-520 S95C) with C95S, D191Y
Description: as §1

[5] = molecular target: T4, wild-type α1BAR (Homo sapiens, UniProt P35368); experiment: as above; format: cell-based; conditions: reference construct
T4 construct: harboring the wild-type helix 8 and the full-length C-terminus as well as the entire ICL3; expressed in transfected cells; host or cells: HEK293T/17
T4 sequence (P35368 whole entry): as the sequence (P35368 whole entry E194V) above, with V194E counted along it
Description: as §1

[6] = molecular target: T5, α1BAR T295^6.36→M (Homo sapiens, UniProt P35368, T295M); experiment: as above; format: cell-based
T5 construct: harboring the wild-type helix 8 and the full-length C-terminus as well as the entire ICL3; expressed in transfected cells; host or cells: HEK293T/17
T5 sequence (P35368 whole entry T295M): as the sequence (P35368 whole entry E194V) above, with V194E, T295M counted along it
Description: as §1

[7] = molecular target: T6, α1BAR I116^3.23→T (Homo sapiens, UniProt P35368, I116T); experiment: as above; format: cell-based
T6 construct: harboring the wild-type helix 8 and the full-length C-terminus as well as the entire ICL3; expressed in transfected cells; host or cells: HEK293T/17
T6 sequence (P35368 whole entry I116T): as the sequence (P35368 whole entry E194V) above, with I116T, V194E counted along it
Description: as §1

[8] = molecular target: T7, α1BAR V333^7.38→L (Homo sapiens, UniProt P35368, V333L); experiment: as above; format: cell-based
T7 construct: harboring the wild-type helix 8 and the full-length C-terminus as well as the entire ICL3; expressed in transfected cells; host or cells: HEK293T/17
T7 sequence (P35368 whole entry V333L): as the sequence (P35368 whole entry E194V) above, with V194E, V333L counted along it
Description: as §1

[9] = molecular target: T8, α1BAR S168^4.48→C (Homo sapiens, UniProt P35368, S168C); experiment: as above; format: cell-based; conditions: for IP1 concentration: S168C, listed as PE
T8 construct: harboring the wild-type helix 8 and the full-length C-terminus as well as the entire ICL3; expressed in transfected cells; host or cells: HEK293T/17
T8 sequence (P35368 1-520 S168C): T2 sequence (P35368 1-520 S95C) with C95S, S168C
Description: as §1

[10] = molecular target: T9, α1BAR P349^7.54→L (Homo sapiens, UniProt P35368, P349L); experiment: as above; format: cell-based
T9 construct: receptor constructs harboring the wild-type helix 8 and the full-length C-terminus as well as the entire ICL3; expressed in transfected cells; host or cells: HEK293T/17
T9 sequence (P35368 whole entry P349L): as the sequence (P35368 whole entry E194V) above, with V194E, P349L counted along it
Description: as §1

[11] = molecular target: T10, α1BAR V124^3.31→M (Homo sapiens, UniProt P35368, V124M); experiment: as above; format: cell-based
T10 construct: harboring the wild-type helix 8 and the full-length C-terminus as well as the entire ICL3; expressed in transfected cells; host or cells: HEK293T/17
T10 sequence (P35368 whole entry V124M): as the sequence (P35368 whole entry E194V) above, with V124M, V194E counted along it
Description: as §1

[12] = molecular target: T11, α1BAR G183^4.63→V (Homo sapiens, UniProt P35368, G183V); experiment: as above; format: cell-based
T11 construct: harboring the wild-type helix 8 and the full-length C-terminus as well as the entire ICL3; expressed in transfected cells; host or cells: HEK293T/17
T11 sequence (P35368 whole entry G183V): as the sequence (P35368 whole entry E194V) above, with G183V, V194E counted along it
Description: (§2) Signaling assays were performed with receptor constructs harboring the wild-type helix 8 and the full-length C-terminus as well as the entire ICL3. Agonist-induced IP1 accumulation was measured in transiently transfected HEK293T/17 cells, as described before. Twenty-four hours after transfection, cells were washed with phosphate-buffered saline (PBS), detached with trypsin-EDTA (Sigma), and resuspended in assay buffer (10 mM HEPES pH 7.4, 1 mM CaCl2, 0.5 mM MgCl2, 4.2 mM KCl, 146 mM NaCl, 50 mM LiCl, 5.5 mM glucose, 0.1% (w/v) BSA). […] IP1 accumulation was measured using the HTRF IP-One kit (Cisbio) according to the manufacturer’s protocol on a SPARK fluorescence plate reader (Tecan).

[13] = molecular target: T12, α1BAR S150^34.50→Y (Homo sapiens, UniProt P35368, S150Y); experiment: as above; format: cell-based
T12 construct: harboring the wild-type helix 8 and the full-length C-terminus as well as the entire ICL3; expressed in transfected cells; host or cells: HEK293T/17
T12 sequence (P35368 whole entry S150Y): as the sequence (P35368 whole entry E194V) above, with S150Y, V194E counted along it
Description: as §2

[14] = system: α1BAR expressed in mammalian cells; conditions: ref Docherty, J. R., Eur. J. Pharmacol. 855, 305-320 (2019), cited from earlier work; for Kd: α1BAR expressed in mammalian cells
[15] = system: α1BAR expressed in E. coli; parameters: method as in ref Schuster, M. et al., Biochim. Biophys. Acta Biomembr. 1862, 183354 (2020); conditions: ref Schuster, M. et al., Biochim. Biophys. Acta Biomembr. 1862, 183354 (2020), read-out: affinity; cited from earlier work

Which “impact of the L334/F334 mutation on affinity” value [1] does the source give for `COc1cc2nc(N3CCN(C(=O)c4ccco4)CC3)nc(N)c2cc1OC` [3H-prazosin] here?
Its value is “only a minor impact”.

Which results are given for `CNC[C@H](O)c1cccc(O)c1` [Phenylephrine]?
IP1 concentration ([2]; E194V, [PE] -4 log M, listed as PE): 499.282 and 565.119 and 803.974 and 817.17 and 667.593 and 781.933; Emax ([2]; HEK293T/17, IP1 accumulation): 85.4 ± 7.4%; Emax ([3]; HEK293T/17, IP1 accumulation): 71.9 ± 5.7%; IP1 concentration ([3]; [PE] -4 log M): 377.435 and 437.765 and 593.664 and 690.124 and 481.642 and 456.558; IP1 concentration ([3]; [PE] -4.69897 log M): 323.191 and 422.658 and 500.281 and 586.924 and 403.917 and 432.8; IP1 concentration ([3]; [PE] -5.39794 log M): 269.373 and 257.6 and 377.64 and 428.644 and 333.33 and 361.512; IP1 concentration ([4]; [PE] -4 log M): 519.698 and 441.949 and 662.352 and 730.409 and 630.141 and 710.683; IP1 concentration ([4]; [PE] -4.69897 log M): 370.913 and 393.347 and 353.075 and 528.612 and 529.351 and 631.077; IP1 concentration ([4]; [PE] -5.39794 log M): 322.315 and 263.99 and 343.654 and 369.218 and 447.164 and 499.2; Emax ([4]; HEK293T/17, IP1 accumulation): 89.6 ± 4.7%; Emax [5]: 100%; Emax [6]: 50.7 ± 5.9%; Emax [7]: 71.2 ± 6.4%; Emax [8]: 79.8 ± 5.2%; Emax ([9]; HEK293T/17, IP1 accumulation): 96.8 ± 8%; IP1 concentration ([9]; [PE] -4 log M): 678.88 and 634.809 and 694.6 and 789.857 and 654.693 and 717.983; IP1 concentration ([9]; [PE] -4.69897 log M): 546.031 and 536.624 and 592.13 and 637.69 and 619.808 and 699.597; IP1 concentration ([9]; [PE] -5.39794 log M): 630.294 and 403.102 and 536.003 and 572.191 and 548.559 and 641.7; IP1 concentration ([9]; [PE] -6.09691 log M): 373.984 and 293.041 and 368.158 and 357.195 and 468.9 and 570.413; IP1 concentration ([9]; [PE] -6.79588 log M): 213.187 and 230.01 and 327.882 and 336.101 and 329.963 and 356.634; Emax [10]: 27.3 ± 4.1%; Emax [11]: 84.2 ± 6.3%; Emax [12]: 9 ± 18.5%; Emax [13]: 13.4 ± 1.7%

Which “affinity as pK value (RLBA)” value ([14]; radioligand binding) does the source give for `COc1cc2nc(N3CCN(C(=O)c4ccco4)CC3)nc(N)c2cc1OC` [prazosin] here?
The value was 9.26–10.3.

What about the Kd ([14]; read-out: affinity range reported in the literature) of the same compound?
Its Kd is 0.05 to 0.55 nM.

What about the Kd ([14]; read-out: mean affinity reported in the literature) of the same compound?
Its Kd is 0.11 nM.

And the Kd [15]?
The Kd was 0.074 nM.
